Measured values: US12173042B2, “Methods of treating cancers with CT45 targeted therapies” (The University of Chicago, priority 2016, dated 2024)

What was measured:
[1] = test system: chromatin enrichment of KAP-1 or PP4; assay: Chromatin fractionation; type: cell-based, human; conditions: OVCAR5-V5-CT45 cell line
Procedure: Chromatin fractionation was performed as described previously. Soluble proteins and proteins bound to open or compacted chromatin were separated by stepwise increasing the salt and nuclease (MNase) treatment. 1E7 cells were washed with PBS and 1 ml low salt buffer (LSB: 10 mM HEPES [pH 7.4], 25 mM KCl, 10 mM NaCl, 1 mM MgCl2, 0.1 mM EDTA). Pelleted cells were then resuspended in six times the packed cell volume (PCV) of LSB supplemented with protease and phosphatase inhibitor cocktail (Roche). After snap freezing in liquid nitrogen, samples were quickly thawed and immediately centrifuged (10 min at 10,000 rpm). The pellet was resuspended in a volume of high-salt buffer (HSB: 50 mM Tris-HCl [pH 8.0], 5% [v/v] glycerol, 1 mM EDTA, 10 mM MgCl2, 400 mM KCl, supplemented with protease and phosphatase inhibitor cocktail), equal to 0.25 V of LSB. After centrifugation at 10,000 rpm (supernatant=nucleoplasmic fraction), the pellet was resuspended in a volume nuclease buffer containing 10 U/ml MNase (NEB) and incubated at 37° C. for 10 min and centrifuged for 5 min at 10,000 rpm (supernatant=chromatin fraction 1). The pellet was then resuspended in the same volume of nuclease buffer containing 100 U/ml MNase and incubated another 45 min at 37° C. before an equal V of solubilization buffer (nuclease buffer+2% [v/v] NP-40, 2% [v/v] Triton X-100, 600 mM NaCl) was added. […]

59M cells = assay: Colony assay of carboplatin treated 59M cells with siRNA; type: cell-based, human; conditions: cells deficient in PP4 or expressing CT45
Source text: FIG. 23. Cell deficient in PP4 or expressing the endogenous PP4 inhibitor CT45 are hypersensitive to carboplatin treatment. Shown are colony assay results of carboplatin treated 59M cells transfected with a control siRNA, PP4C siRNA or CT45 siRNA. Colony numbers are normalized to untreated cells of each siRNA.

OVCAR5-V5-CT45 cells = assay: Nuclear size (DAPI); type: cell-based, human; conditions: cells expressing CT45, day 5, carboplatin 5 μM
Procedure: FIG. 13A-I. CT45 interferes with chromatin dynamics after DNA damage. A, Western blot analysis of OVCAR5 and OVKATE cell line pairs treated with carboplatin (5 μM). Day 3. B, Immunofluorescence staining of KAP1-S824 γH2AX and DAPI in OVCAR5-V5 and OVCAR5-V5-CT45 cell line pair with or without carboplatin treatment (5 μM) at day 3, 5, and 7. Data are means+/−s.e.m. of 5 independent replicates (right panel). Representative cells are shown left. C, CT45 positive 59M cells were collected and processed for a chromatin segregation assay as detailed in the Methods. PP4 complex members, KAP1, and HDAC2 were detected by western blot. D, Volcano plot of chromatin-immunoprecipitation mass spectrometry (ChIP-MS) results for the V5-tag in OVCAR5-V5-CT45 vs. OVCAR5-V5 cell line. Fold enrichment of V5-tagged CT45 over control cell line (V5 tag alone) is plotted against the t-test p-value (−log10). Dashed lines indicate significance thresholds (FDR<0.01, s0=2). […] Most significant pathways are ranked by enrichment false-discovery rate. F, Fold change in nuclear sizes of OVCAR5-V5-CT45 and OVCAR5-V5 cells at day 5 with carboplatin (5 μM) treatment normalized to untreated cells. Representative DAPI images are shown in upper panel. Bar plots represent nuclear sizes from 5 independent experiments. Scale ar=[…]. Data are means+/−s.e.m. […]

[2] = test system: chromatin of OVCAR5-V5-CT45 and OVCAR5-V5 cells; assay: Micrococcal nuclease (MNase) assay; type: cell-based, human; conditions: after five days, vector control and CT45 overexpressing cell line
Procedure: Chromatin relaxation was assayed using the micrococcal nuclease (MNase) assay as previously described, with a few modifications. Briefly, nuclei from 1E6 cells were extracted with 300 μl ice-cold lysis buffer (10 mM Tris-HCl (pH 7.5), 10 mM NaCl, 3 mM MgCl2 and 0.4% IGPAL-CA-630) on ice for 5 min. After centrifugation (2,000 g for 5 min at 4° C.), nuclei were washed two times in lysis buffer and one time in 500 μl digestion buffer (0.32M sucrose, 50 mM Tris-HCl (pH7.5), 4 mM MgCl2, 1 mM CaCl2). Nuclei were then digested in digestion buffer with 50 gel units MNase (NEB) for 9 min at 27° C. in a final volume of 100 μl. The reaction was stopped by adding a final concentration of 1% SDS and 15 mM EGTA. Genomic DNA was purified and separated by gel electrophoresis (1.2% agarose).

OVCAR5-V5-CT45 tumors = assay: Subcutaneous tumor growth in nude mice, CT45 expressing tumors; type: in vivo, athymic nude mice; conditions: carboplatin 20 mg/kg tail vein 1 time/week, vs untreated CT45 tumors
Procedure: (§1) 5 million OVCAR5-V5 or OVCAR5-V5-CT45 cells suspended in a 1:2 solution of serum-free media to growth-factor reduced matrigel were injected subcutaneously into the right and left flanks respectively, of 8 week old female athymic nude mice. After 5 days, treatment was administered through the tail vein 1 time/week at 20 mg/kg. Sterile water served as the control treatment. Tumor growth was measured every 2-3 days using calipers until the tumor neared 1 cm3 and was measured daily. Once the tumor reached 1 cm3 the mouse was sacrificed. 4 mice were removed from the study early due to ulcerations of the skin. All experiments were approved by the Institutional Animal Care and Use Committee of the University of Chicago.
as §1, with “Five million” for “5 million”, “8 weeks” for “8 week”, “1 cm^3” for “1 cm3”, “skin. […]” for “skin. All experiments were approved by the Institutional Animal Care and Use Committee of the University of Chicago.”

SMILES: N.N.O=C([O-])C1(C(=O)[O-])CCC1.[Pt+2] [carboplatin]
- chromatin enrichment of KAP-1 or PP4 [1]: did not find
- sensitivity of colony formation to carboplatin (59M cells): hypersensitive
- nuclear size (OVCAR5-V5-CT45 cells): larger nuclei
- chromatin relaxation [2]: induced global chromatin relaxation
- tumor growth (OVCAR5-V5-CT45 tumors): significantly reduced growth
